Experimental data from patent publication US20070190188A1, “Controlling Toxicity of Aminoquinoline Compounds” (The University of Mississippi, priority 2005, published 2007).

Legend:
[1] = biological target: T1, CPY 2B6 (Homo sapiens, UniProt P20813); test: Methemoglobinemic metabolite formation with Baculosomes, CYP 2B6; assay type: cell-based; settings: mean ± S.D. of four
T1 construct: purchased; host or cells: insect cells infected with recombinant baculovirus
T1 sequence (P20813 1-491): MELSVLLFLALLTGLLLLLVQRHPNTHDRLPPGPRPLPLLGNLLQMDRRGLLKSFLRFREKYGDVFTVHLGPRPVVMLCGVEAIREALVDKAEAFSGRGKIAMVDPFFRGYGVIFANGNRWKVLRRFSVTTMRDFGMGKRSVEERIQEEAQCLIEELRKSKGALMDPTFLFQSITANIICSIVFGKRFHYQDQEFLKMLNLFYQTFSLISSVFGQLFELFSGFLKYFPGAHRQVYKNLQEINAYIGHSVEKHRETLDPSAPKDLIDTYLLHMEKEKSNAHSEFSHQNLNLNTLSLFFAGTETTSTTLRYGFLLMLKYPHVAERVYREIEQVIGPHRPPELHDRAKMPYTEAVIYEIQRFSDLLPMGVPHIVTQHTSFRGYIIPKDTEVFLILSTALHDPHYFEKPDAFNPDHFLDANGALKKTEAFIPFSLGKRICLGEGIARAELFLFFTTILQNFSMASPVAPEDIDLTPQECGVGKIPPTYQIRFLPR
Procedure: (§1) This method uses simultaneous incubation of a test compound with the hepatic microsomes or Baculosomes® (microsomes prepared from insect cells infected with recombinant baculovirus containing a cDNA insert for a specific human P450 isozyme and NADPH-P450 reductase) and human erythrocytes followed by determination of methemoglobin formation. This allows the unstable metabolites generated in situ to react with the human erythrocytes.

[2] = tested on: human erythrocytes; test: In vitro methemoglobin formation, human erythrocytes, control without microsomes; assay type: cell-based
Procedure: (§2) In one aspect of the present invention, an in vitro assay is developed for evaluation of biotransformation reactions leading to generation of methemoglobinemic metabolites of 8-aminoquinolines. This method uses simultaneous incubation of a test compound with the hepatic microsomes or Baculosomes® (microsomes prepared from insect cells infected with recombinant baculovirus containing a cDNA insert for a specific human P450 isozyme and NADPH-P450 reductase) and human erythrocytes followed by determination of methemoglobin formation. This allows the unstable metabolites generated in situ to react with the human erythrocytes.

[3] = biological target: T2, CYP 2C19 (Homo sapiens, UniProt P33261); test: Methemoglobinemic metabolite formation with Baculosomes, CYP 2C19; assay type: cell-based; settings: mean ± S.D. of four
T2 construct: purchased; host or cells: insect cells infected with recombinant baculovirus
Procedure: as §1

[4] = biological target: T3, CYP 2D6 (Homo sapiens, UniProt P10635); test: Methemoglobinemic metabolite formation with Baculosomes, CYP 2D6; assay type: cell-based; settings: mean ± S.D. of four
T3 construct: purchased; host or cells: insect cells infected with recombinant baculovirus
Procedure: as §1

[5] = biological target: T4, CYP 2C8 (Homo sapiens, UniProt P10632); test: Methemoglobinemic metabolite formation with Baculosomes, CYP 2C8; assay type: cell-based; settings: mean ± S.D. of four
T4 construct: purchased; host or cells: insect cells infected with recombinant baculovirus
T4 sequence (P10632 1-490): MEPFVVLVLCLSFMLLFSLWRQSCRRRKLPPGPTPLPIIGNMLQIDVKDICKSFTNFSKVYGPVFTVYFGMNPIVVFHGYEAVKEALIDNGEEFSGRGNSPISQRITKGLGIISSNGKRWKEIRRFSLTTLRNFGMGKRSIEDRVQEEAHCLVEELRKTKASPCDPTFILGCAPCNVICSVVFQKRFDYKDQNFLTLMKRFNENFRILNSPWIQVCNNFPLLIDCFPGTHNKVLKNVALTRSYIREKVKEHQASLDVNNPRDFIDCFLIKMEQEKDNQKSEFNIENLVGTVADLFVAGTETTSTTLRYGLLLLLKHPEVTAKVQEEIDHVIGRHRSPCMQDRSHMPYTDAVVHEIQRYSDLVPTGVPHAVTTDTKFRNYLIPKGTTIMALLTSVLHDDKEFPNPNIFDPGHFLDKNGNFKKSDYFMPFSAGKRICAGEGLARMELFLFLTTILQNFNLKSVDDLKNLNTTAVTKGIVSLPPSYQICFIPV
Procedure: as §2

[6] = biological target: T5, CYP 2C9 (Homo sapiens, UniProt P11712); test: Methemoglobinemic metabolite formation with Baculosomes, CYP 2C9; assay type: cell-based; settings: mean ± S.D. of four
T5 construct: purchased; host or cells: insect cells infected with recombinant baculovirus
Procedure: as §1

[7] = biological target: T6, CYP 2E1 (Homo sapiens, UniProt P05181); test: Methemoglobinemic metabolite formation with Baculosomes, CYP 2E1; assay type: cell-based; settings: mean ± S.D. of four
T6 construct: purchased; host or cells: insect cells infected with recombinant baculovirus
Procedure: as §1

[8] = tested on: Plasmodium berghei; test: In vivo antimalarial evaluation in Plasmodium berghei-mouse malaria model
From the text: One concern with this method of controlling 8-aminoquinoline toxicity is that the inhibition metabolism of the drug may impair its antiparasitic efficacy. […] Thus treatment of the individuals with NPC1161B along with an inhibitor of CYP3A4 should not compromise the therapeutic efficiency of NPC1161B.

[9] = biological target: T7, CYP 3A4 (Homo sapiens, UniProt P08684); test: Methemoglobinemic metabolite formation with Baculosomes, CYP 3A4; assay type: cell-based
T7 construct: purchased; host or cells: insect cells infected with recombinant baculovirus
Procedure: as §2

[10] = tested on: pooled human liver microsomes; test: In vitro formation of methemoglobinemic metabolites with pooled human liver microsomes and human erythrocytes; assay type: cell-based
Procedure: as §2

T7 sequence (P08684 2-503 limits assumed): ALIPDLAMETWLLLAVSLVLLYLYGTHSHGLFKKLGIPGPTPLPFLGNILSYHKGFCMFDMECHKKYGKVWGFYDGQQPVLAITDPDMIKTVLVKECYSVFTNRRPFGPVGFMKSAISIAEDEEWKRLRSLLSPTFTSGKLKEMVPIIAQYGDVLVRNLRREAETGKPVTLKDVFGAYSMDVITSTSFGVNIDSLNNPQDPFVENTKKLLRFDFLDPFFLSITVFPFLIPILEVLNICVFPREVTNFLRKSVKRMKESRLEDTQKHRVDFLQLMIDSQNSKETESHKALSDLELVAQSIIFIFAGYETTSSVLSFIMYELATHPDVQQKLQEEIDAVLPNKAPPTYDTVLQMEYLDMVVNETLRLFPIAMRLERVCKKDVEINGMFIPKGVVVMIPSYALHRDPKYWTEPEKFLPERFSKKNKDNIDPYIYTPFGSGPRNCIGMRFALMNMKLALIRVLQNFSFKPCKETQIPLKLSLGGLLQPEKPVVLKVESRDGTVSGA
T5 sequence (P11712 whole entry): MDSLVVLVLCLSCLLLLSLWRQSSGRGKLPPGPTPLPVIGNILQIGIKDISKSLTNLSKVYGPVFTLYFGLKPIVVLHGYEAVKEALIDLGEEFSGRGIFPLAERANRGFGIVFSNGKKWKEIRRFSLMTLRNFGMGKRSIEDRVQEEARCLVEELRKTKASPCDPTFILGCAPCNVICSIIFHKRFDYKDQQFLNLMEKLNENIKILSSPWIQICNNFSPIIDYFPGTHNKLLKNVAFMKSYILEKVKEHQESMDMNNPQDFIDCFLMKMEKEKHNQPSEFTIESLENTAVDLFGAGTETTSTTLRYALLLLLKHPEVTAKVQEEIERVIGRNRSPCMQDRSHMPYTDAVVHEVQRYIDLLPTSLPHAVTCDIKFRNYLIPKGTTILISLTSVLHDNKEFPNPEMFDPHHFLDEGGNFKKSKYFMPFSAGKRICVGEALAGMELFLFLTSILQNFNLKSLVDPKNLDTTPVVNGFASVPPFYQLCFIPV
T3 sequence (P10635 whole entry): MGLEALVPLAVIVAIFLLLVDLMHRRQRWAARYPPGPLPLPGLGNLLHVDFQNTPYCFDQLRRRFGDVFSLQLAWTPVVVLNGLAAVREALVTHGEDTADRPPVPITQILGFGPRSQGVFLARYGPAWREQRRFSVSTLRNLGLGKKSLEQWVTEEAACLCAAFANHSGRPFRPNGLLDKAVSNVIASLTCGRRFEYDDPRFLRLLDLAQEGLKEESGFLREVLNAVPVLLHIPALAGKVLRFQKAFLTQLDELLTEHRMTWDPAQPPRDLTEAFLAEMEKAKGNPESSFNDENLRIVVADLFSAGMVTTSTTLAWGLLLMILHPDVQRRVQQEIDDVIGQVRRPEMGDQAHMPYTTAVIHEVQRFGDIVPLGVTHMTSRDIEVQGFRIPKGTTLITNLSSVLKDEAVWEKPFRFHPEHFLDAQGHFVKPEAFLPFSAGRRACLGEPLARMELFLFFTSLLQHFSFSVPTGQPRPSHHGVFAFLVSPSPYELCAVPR
T2 sequence (P33261 whole entry): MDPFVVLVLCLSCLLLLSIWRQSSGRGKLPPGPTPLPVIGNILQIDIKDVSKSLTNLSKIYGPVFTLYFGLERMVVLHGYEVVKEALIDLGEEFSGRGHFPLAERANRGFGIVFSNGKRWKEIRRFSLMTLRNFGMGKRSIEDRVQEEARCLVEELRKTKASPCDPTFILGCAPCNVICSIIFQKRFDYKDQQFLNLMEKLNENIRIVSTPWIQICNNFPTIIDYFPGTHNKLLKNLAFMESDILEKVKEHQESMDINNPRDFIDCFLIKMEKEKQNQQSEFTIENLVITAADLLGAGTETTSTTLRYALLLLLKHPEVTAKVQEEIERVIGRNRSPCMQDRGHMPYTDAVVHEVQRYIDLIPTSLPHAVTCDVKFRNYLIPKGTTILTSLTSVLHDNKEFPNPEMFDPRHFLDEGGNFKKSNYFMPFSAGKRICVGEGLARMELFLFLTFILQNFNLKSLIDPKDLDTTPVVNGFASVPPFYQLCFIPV
T6 sequence (P05181 whole entry): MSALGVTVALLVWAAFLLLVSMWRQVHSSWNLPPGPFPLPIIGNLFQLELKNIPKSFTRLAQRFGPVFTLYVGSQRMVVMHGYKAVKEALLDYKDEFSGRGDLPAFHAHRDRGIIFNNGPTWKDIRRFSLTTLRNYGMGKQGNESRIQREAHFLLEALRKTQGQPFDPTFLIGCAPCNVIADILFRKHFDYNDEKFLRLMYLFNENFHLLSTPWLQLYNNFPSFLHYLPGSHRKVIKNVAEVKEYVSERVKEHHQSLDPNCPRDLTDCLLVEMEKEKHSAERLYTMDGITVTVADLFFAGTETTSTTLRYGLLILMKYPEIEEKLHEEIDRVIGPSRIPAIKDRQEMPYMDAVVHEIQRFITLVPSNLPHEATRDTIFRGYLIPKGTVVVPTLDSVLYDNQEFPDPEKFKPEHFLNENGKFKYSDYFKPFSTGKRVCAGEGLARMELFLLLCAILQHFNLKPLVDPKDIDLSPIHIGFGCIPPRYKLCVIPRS

In the case of `COc1cc(N[C@H](C)CCCN)c2nccc(C)c2c1Oc1ccc(Cl)c(Cl)c1` [NPC1161B], the “% methemoglobin formed, CPY 2B6” value [1] is reported as 2.855 ± 0.419%, the “% methemoglobin formed, Supersomes None” value ([2]; no Baculosomes, mean ± S.D. of four) is reported as 0.980 ± 0.493% and the “% methemoglobin formation, Control” value ([2]; no microsomes, drug 100 μM, Mean ± S.D. of four observations) is reported as 0.980 ± 0.439%. For the same compound, the “% methemoglobin formed, CYP 2C19” value [3] was 3.870 ± 0.577%, the “% methemoglobin formed, CYP 2D6” value [4] was 5.380 ± 1.402% and the “% methemoglobin formed, CYP 2C8” value [5] was 1.353 ± 0.791%. For the same compound, the “% methemoglobin formed, CYP 2C9” value [6] was 3.690 ± 1.660%, the “% methemoglobin formed, CYP 2E1” value [7] was 3.801 ± 1.996% and the deaths ([8]; NPC 1161B 0.312 mg/kg × 3 oral +TAO (i.p.)) was “nil”. For the same compound, the “(%) Parasitemia” value ([8]; NPC 1161B 0.312 mg/kg × 3 oral +TAO (i.p.), day 10 p.i., individual mice) was 0/0/0/0/0, the “(%) Parasitemia” value ([8]; NPC 1161B 0.312 mg/kg × 3 oral +TAO (i.p.), day 14 p.i., mean in brackets) was 2.83/2.04/+/5.29/0 (2.0) % and the “(%) Parasitemia” value ([8]; NPC 1161B 0.312 mg/kg × 3 oral +TAO (i.p.), day 21 p.i., mean in brackets) was 23.8/32.4/0/28.3/0 (16.9) %. The deaths ([8]; NPC 1161B 0.312 mg/kg × 3 oral, Alone) was “nil”, the “(%) Parasitemia” value ([8]; NPC 1161B 0.312 mg/kg × 3 oral, Alone, day 14 p.i., mean in brackets) was 0/5.8/0.66/0.8/1.36 (2.9) % and the “(%) Parasitemia” value ([8]; NPC 1161B 0.312 mg/kg × 3 oral, Alone, day 21 p.i., mean in brackets) was 11.3/53.3/19.4/6.0/17.8 (21.5) %. The deaths ([8]; NPC 1161B 0.625 mg/kg × 3 oral +TAO (i.p.)) was “nil”, the “(%) Parasitemia” value ([8]; NPC 1161B 0.625 mg/kg × 3 oral +TAO (i.p.), day 10 p.i., individual mice) was 0/0/0/0/0 and the “(%) Parasitemia” value ([8]; NPC 1161B 0.625 mg/kg × 3 oral +TAO (i.p.), day 21 p.i., mean in brackets) was 8.4/0/10.4/18.4/1.5 (7.7) %. For the same compound, the deaths ([8]; NPC 1161B 0.625 mg/kg × 3 oral, Alone) was “nil”, the “(%) Parasitemia” value ([8]; NPC 1161B 0.625 mg/kg × 3 oral, Alone, day 7 p.i., individual mice) was 0/0/0/0/0 and the “(%) Parasitemia” value ([8]; NPC 1161B 0.625 mg/kg × 3 oral, Alone, day 21 p.i., mean in brackets) was 0/+/5.2/2.6/3.7 (2.3) %. For the same compound, the deaths ([8]; NPC 1161B 1.25 mg/kg × 3 oral +TAO (i.p.)) was “nil”, the “(%) Parasitemia” value ([8]; NPC 1161B 1.25 mg/kg × 3 oral +TAO (i.p.), day 7 p.i., individual mice) was 0/0/0/0/0 and the “(%) Parasitemia” value ([8]; NPC 1161B 1.25 mg/kg × 3 oral +TAO (i.p.), day 10 p.i., individual mice) was 0/0/0/0/0. For the same compound, the “(%) Parasitemia” value ([8]; NPC 1161B 1.25 mg/kg × 3 oral +TAO (i.p.), day 14 p.i., individual mice) was 0/0/0/0/0, the “(%) Parasitemia” value ([8]; NPC 1161B 1.25 mg/kg × 3 oral +TAO (i.p.), day 21 p.i., individual mice) was 0/0/0/0/0 and the “(%) Parasitemia” value ([8]; NPC 1161B 1.25 mg/kg × 3 oral +TAO (i.p.), day 28 p.i., individual mice) was 0/0/0/0/0. For the same compound, the deaths ([8]; NPC 1161B 1.25 mg/kg × 3 oral, Alone) was “nil”, the “(%) Parasitemia” value ([8]; NPC 1161B 1.25 mg/kg × 3 oral, Alone, day 7 p.i., individual mice) was 0/0/0/0/0 and the “(%) Parasitemia” value ([8]; NPC 1161B 1.25 mg/kg × 3 oral, Alone, day 10 p.i., individual mice) was 0/0/0/0/0. The “(%) Parasitemia” value ([8]; NPC 1161B 1.25 mg/kg × 3 oral, Alone, day 14 p.i., individual mice) was 0/0/0/0/0, the “(%) Parasitemia” value ([8]; NPC 1161B 1.25 mg/kg × 3 oral, Alone, day 21 p.i., individual mice) was 0/0/0/0/0 and the “(%) Parasitemia” value ([8]; NPC 1161B 1.25 mg/kg × 3 oral, Alone, day 28 p.i., individual mice) was 0/0/0/0/0. The deaths ([8]; NPC 1161B 2.5 mg/kg × 3 oral +TAO (i.p.)) was “nil”, the “(%) Parasitemia” value ([8]; NPC 1161B 2.5 mg/kg × 3 oral +TAO (i.p.), day 7 p.i., individual mice) was 0/0/0/0/0 and the “(%) Parasitemia” value ([8]; NPC 1161B 2.5 mg/kg × 3 oral +TAO (i.p.), day 10 p.i., individual mice) was 0/0/0/0/0. The “(%) Parasitemia” value ([8]; NPC 1161B 2.5 mg/kg × 3 oral +TAO (i.p.), day 14 p.i., individual mice) was 0/0/0/0/0, the “(%) Parasitemia” value ([8]; NPC 1161B 2.5 mg/kg × 3 oral +TAO (i.p.), day 21 p.i., individual mice) was 0/0/0/0/0 and the “(%) Parasitemia” value ([8]; NPC 1161B 2.5 mg/kg × 3 oral +TAO (i.p.), day 28 p.i., individual mice) was 0/0/0/0/0. The deaths ([8]; NPC 1161B 2.5 mg/kg × 3 oral, Alone) was “nil”, the “(%) Parasitemia” value ([8]; NPC 1161B 2.5 mg/kg × 3 oral, Alone, day 7 p.i., individual mice) was 0/0/0/0/0 and the “(%) Parasitemia” value ([8]; NPC 1161B 2.5 mg/kg × 3 oral, Alone, day 10 p.i., individual mice) was 0/0/0/0/0. The “(%) Parasitemia” value ([8]; NPC 1161B 2.5 mg/kg × 3 oral, Alone, day 14 p.i., individual mice) was 0/0/0/0/0, the “(%) Parasitemia” value ([8]; NPC 1161B 2.5 mg/kg × 3 oral, Alone, day 21 p.i., individual mice) was 0/0/0/0/0 and the “(%) Parasitemia” value ([8]; NPC 1161B 2.5 mg/kg × 3 oral, Alone, day 28 p.i., individual mice) was 0/0/0/0/0. For the same compound, the “effect of troleandomycin on the antimalarial property of NPC1161B” value ([8]; mice infected with Plasmodium berghei, Table 7) was “does not antagonize”, the “% methemoglobin formed, Cimetidine” value ([9]; 3A4 Baculosomes, 8-aminoquinoline 100 μM with Cimetidine 100 μM) was 8.567 ± 0.600% and the “% methemoglobin formed, Erythromycin” value ([9]; 3A4 Baculosomes, 8-aminoquinoline 100 μM with Erythromycin 100 μM) was 11.655 ± 1.818%. For the same compound, the “% methemoglobin formed, Ketoconazole” value ([9]; 3A4 Baculosomes, 8-aminoquinoline 100 μM with Ketoconazole 100 μM) was 9.615 ± 1.552%, the “% methemoglobin formed, Troleandomycin” value ([9]; 3A4 Baculosomes, 8-aminoquinoline 100 μM with Troleandomycin 100 μM) was 2.785 ± 0.628% and the “% methemoglobin formed, inhibitor None” value ([9]; 3A4 Baculosomes, 8-aminoquinoline 100 μM, no inhibitor) was 18.185 ± 2.809%. The “% methemoglobin formed, CYP 3A4” value ([9]; Baculosomes, mean ± S.D. of four) was 15.280 ± 1.077%, the “CYP responsible for metabolism” value ([9]; FIG. 4, Table 2) was “primarily metabolized by CYP 3A4” and the “methemoglobin toxicity generated by CYP 3A4, comparison among the three 8-aminoquinolines” value ([9]; FIG. 5) was “almost similar methemoglobin toxicity”. For the same compound, the “methemoglobin toxicity compared with primaquine and NPC 1161A” value ([10]; FIGS. 1 and 2, Table 1) was “significantly reduced methemoglobin toxicity”, the “% methemoglobin formation, Pooled Human liver Microsomes” value ([10]; drug 100 μM, microsomes equivalent to 25 pmoles cytochrome P450, Mean ± S.D. of four) was 7.455 ± 0.879% and the “formation of methemoglobenemic metabolites, Azithromycin” value ([10]; pooled human Liver Microsomes, 8-aminoquinoline with Azithromycin) was 7.565 ± 1.276. The “formation of methemoglobenemic metabolites, Erythromycin” value ([10]; pooled human Liver Microsomes, 8-aminoquinoline with Erythromycin) was 0, the “formation of methemoglobenemic metabolites, Microsomes” value ([10]; pooled human Liver Microsomes, no macrolide) was 7.697 ± 1.392 and the “methemoglobin toxicity with macrolide antibiotics troleandomycin and erythromycin” value ([10]; pooled human liver microsomes, FIG. 7 and 8) was “almost completely abolished”.
